Reference: patent publication US8507251B2, “Medium and method for culturing Mycobacterium avium subspecies paratuberculosis” (priority 2009, dated 2013)
Like-named read-outs stand apart in the source and are kept apart here.

How the values were obtained:
M. avium 101 = experiment: radiometric 14CO2 BACTEC 460 growth culture, M. avium 101; type: cell-based, M. avium subspecies avium; conditions: for effect on growth (in words): at the doses tested
MAP ATCC 19698 = experiment: radiometric 14CO2 BACTEC 460 growth culture, MAP 19698; type: cell-based, Mycobacterium avium subspecies paratuberculosis; conditions: for effect on growth (in words): at the doses tested
[1] = system: avirulent M. tb strain ATCC 25177; type: cell-based, M. tuberculosis
[2] = system: MAP strain Dominic (ATCC 43545); experiment: radiometric 14CO2 BACTEC 460 growth culture, MAP Dominic; type: cell-based, Mycobacterium avium subspecies paratuberculosis; conditions: for effect on growth (in words): at the doses tested
[3] = system: Bacillus Callmette Guerin (BCG) M. bovis Karlson & Lessel (ATCC 19015); type: cell-based
MAP strain UCF-4 = experiment: radiometric 14CO2 BACTEC 460 growth culture, MAP UCF-4; type: cell-based, Mycobacterium avium subspecies paratuberculosis; conditions: for effect on growth (in words): at the doses tested
M. avium ATCC 25291 = experiment: radiometric 14CO2 BACTEC 460 growth culture, M. avium 25291; type: cell-based, M. avium subspecies avium; conditions: for effect on growth (in words): at the doses tested
MAP 303 = experiment: radiometric 14CO2 BACTEC 460 growth culture, MAP 303; type: cell-based, Mycobacterium avium subspecies paratuberculosis; conditions: for effect on growth (in words): at the doses tested
[4] = 1 μg/ml, first of the two values (two experiments)
[5] = 1 μg/ml, second of the two values (two experiments)
[6] = 4 μg/ml, first of the two values (two experiments)
[7] = 4 μg/ml, second of the two values (two experiments)
[8] = 16 μg/ml, first of the two values (two experiments)
[9] = 16 μg/ml, second of the two values (two experiments)
[10] = 64 μg/ml, first of the two values (two experiments)
[11] = 64 μg/ml, second of the two values (two experiments)

## NNC(=O)c1ccncc1 [INH, Isoniazid, reference compound]
M. avium 101; 1 μg/ml
  percent change from control cGI (% ΔcGI / % −ΔcGI): −48%
M. avium 101; 4 μg/ml
  percent change from control cGI (% ΔcGI / % −ΔcGI): −96%
M. avium 101; 16 μg/ml
  percent change from control cGI (% ΔcGI / % −ΔcGI): −95%
M. avium 101; 64 μg/ml
  percent change from control cGI (% ΔcGI / % −ΔcGI): −97%
M. avium 101; 64 μg/ml, value is a decrease
  percent decrease from control cGI (%−ΔcGI): ≥ 97%
MAP ATCC 19698; 1 μg/ml
  percent change from control cGI (% ΔcGI / % −ΔcGI): −20%
MAP ATCC 19698; 4 μg/ml
  percent change from control cGI (% ΔcGI / % −ΔcGI): −14%
MAP ATCC 19698; 16 μg/ml
  percent change from control cGI (% ΔcGI / % −ΔcGI): −17%
MAP ATCC 19698; 64 μg/ml
  percent change from control cGI (% ΔcGI / % −ΔcGI): −63%
MAP ATCC 19698
  effect on growth (in words): no dose-dependent inhibition
[1]; 1 μg/ml
  percent change from control cGI (% ΔcGI / % −ΔcGI): −97%
  percent decrease from control cGI (%−ΔcGI): 97%
[1]; 4 μg/ml
  percent change from control cGI (% ΔcGI / % −ΔcGI): −98%
[1]; 16 μg/ml
  percent change from control cGI (% ΔcGI / % −ΔcGI): −98%
[1]; 64 μg/ml
  percent change from control cGI (% ΔcGI / % −ΔcGI): −98%
[2]; [4]
  percent change from control cGI (% ΔcGI / % −ΔcGI): 18%
[2]; [5]
  percent change from control cGI (% ΔcGI / % −ΔcGI): 11%
[2]; [6]
  percent change from control cGI (% ΔcGI / % −ΔcGI): 9%
[2]; [7]
  percent change from control cGI (% ΔcGI / % −ΔcGI): 29%
[2]; [8]
  percent change from control cGI (% ΔcGI / % −ΔcGI): −4%
[2]; [9]
  percent change from control cGI (% ΔcGI / % −ΔcGI): 9%
[2]; [10]
  percent change from control cGI (% ΔcGI / % −ΔcGI): −65%
[2]; [11]
  percent change from control cGI (% ΔcGI / % −ΔcGI): −52%
[2]
  effect on growth (in words): no dose-dependent inhibition
[3]
  percent decrease from control cGI (%−ΔcGI): ≥ 97%
MAP strain UCF-4; 1 μg/ml
  percent change from control cGI (% ΔcGI / % −ΔcGI): −5%
MAP strain UCF-4; 4 μg/ml
  percent change from control cGI (% ΔcGI / % −ΔcGI): 2%
MAP strain UCF-4; 16 μg/ml
  percent change from control cGI (% ΔcGI / % −ΔcGI): −4%
MAP strain UCF-4; 64 μg/ml
  percent change from control cGI (% ΔcGI / % −ΔcGI): −35%
MAP strain UCF-4
  effect on growth (in words): no dose-dependent inhibition
M. avium ATCC 25291; 1 μg/ml
  percent change from control cGI (% ΔcGI / % −ΔcGI): 176%
M. avium ATCC 25291; 4 μg/ml
  percent change from control cGI (% ΔcGI / % −ΔcGI): 89%
M. avium ATCC 25291; 16 μg/ml
  percent change from control cGI (% ΔcGI / % −ΔcGI): 189%
M. avium ATCC 25291; 64 μg/ml
  percent change from control cGI (% ΔcGI / % −ΔcGI): −90%
MAP 303; 1 μg/ml
  percent change from control cGI (% ΔcGI / % −ΔcGI): −18%
MAP 303; 4 μg/ml
  percent change from control cGI (% ΔcGI / % −ΔcGI): −6%
MAP 303; 16 μg/ml
  percent change from control cGI (% ΔcGI / % −ΔcGI): −12%
MAP 303; 64 μg/ml
  percent change from control cGI (% ΔcGI / % −ΔcGI): −52%
MAP 303
  effect on growth (in words): no dose-dependent inhibition

## NC(=O)c1cccnc1 [Nicotinamide, nicotinamide]
M. avium 101; 0.1 μg/ml
  percent change from control cGI (% ΔcGI / % −ΔcGI): 6%
M. avium 101; 0.4 μg/ml
  percent change from control cGI (% ΔcGI / % −ΔcGI): −21%
M. avium 101; 1.6 μg/ml
  percent change from control cGI (% ΔcGI / % −ΔcGI): 7%
M. avium 101; 6.4 μg/ml
  percent change from control cGI (% ΔcGI / % −ΔcGI): 58%
M. avium 101
  effect on growth (in words): caused enhancement of growth
MAP ATCC 19698; 0.1 μg/ml
  percent change from control cGI (% ΔcGI / % −ΔcGI): −6%
MAP ATCC 19698; 0.4 μg/ml
  percent change from control cGI (% ΔcGI / % −ΔcGI): −2%
MAP ATCC 19698; 1.6 μg/ml
  percent change from control cGI (% ΔcGI / % −ΔcGI): −8%
MAP ATCC 19698; 6.4 μg/ml
  percent change from control cGI (% ΔcGI / % −ΔcGI): −7%
MAP ATCC 19698
  effect on growth (in words): no effect
[1]
  effect on growth (in words): no effect
[2]; 0.1 μg/ml, second value printed in Table 4
  percent change from control cGI (% ΔcGI / % −ΔcGI): 32%
[2]; 0.4 μg/ml, second value printed in Table 4
  percent change from control cGI (% ΔcGI / % −ΔcGI): 98%
[2]; [4]
  percent change from control cGI (% ΔcGI / % −ΔcGI): 110%
[2]; 1.6 μg/ml, second value printed in Table 4
  percent change from control cGI (% ΔcGI / % −ΔcGI): 156%
[2]; [6]
  percent change from control cGI (% ΔcGI / % −ΔcGI): 115%
[2]; 6.4 μg/ml, second value printed in Table 4
  percent change from control cGI (% ΔcGI / % −ΔcGI): 156%
[2]; [8]
  percent change from control cGI (% ΔcGI / % −ΔcGI): 125%
[2]; [10]
  percent change from control cGI (% ΔcGI / % −ΔcGI): 106%
[2]
  effect on growth (in words): enhanced
[2]; for 1, 4, 16 and 64 μg/ml, first experiment
  percent increase from control cGI (%+ΔcGI): ≥ 100%
[3]; at the doses tested
  effect on growth (in words): no effect
MAP strain UCF-4; 0.1 μg/ml
  percent change from control cGI (% ΔcGI / % −ΔcGI): 20%
MAP strain UCF-4; 0.4 μg/ml
  percent change from control cGI (% ΔcGI / % −ΔcGI): 52%
MAP strain UCF-4; 1.6 μg/ml
  percent change from control cGI (% ΔcGI / % −ΔcGI): 73%
MAP strain UCF-4; 6.4 μg/ml
  percent change from control cGI (% ΔcGI / % −ΔcGI): 79%
MAP strain UCF-4
  effect on growth (in words): enhanced
M. avium ATCC 25291; 0.1 μg/ml
  percent change from control cGI (% ΔcGI / % −ΔcGI): 23%
M. avium ATCC 25291; 0.4 μg/ml
  percent change from control cGI (% ΔcGI / % −ΔcGI): 105%
M. avium ATCC 25291; 1.6 μg/ml
  percent change from control cGI (% ΔcGI / % −ΔcGI): 157%
M. avium ATCC 25291; 6.4 μg/ml
  percent change from control cGI (% ΔcGI / % −ΔcGI): 144%
M. avium ATCC 25291
  effect on growth (in words): caused enhancement of growth
MAP 303; 0.1 μg/ml
  percent change from control cGI (% ΔcGI / % −ΔcGI): −5%
MAP 303; 0.4 μg/ml
  percent change from control cGI (% ΔcGI / % −ΔcGI): −28%
MAP 303; 1.6 μg/ml
  percent change from control cGI (% ΔcGI / % −ΔcGI): 11%
MAP 303; 6.4 μg/ml
  percent change from control cGI (% ΔcGI / % −ΔcGI): 3%
MAP 303
  effect on growth (in words): no effect

## O=C(O)c1cccnc1 [Nicotinic acid, nicotinic acid]
M. avium 101; 1 μg/ml
  percent change from control cGI (% ΔcGI / % −ΔcGI): 41%
M. avium 101; 4 μg/ml
  percent change from control cGI (% ΔcGI / % −ΔcGI): 47%
M. avium 101; 16 μg/ml
  percent change from control cGI (% ΔcGI / % −ΔcGI): 40%
M. avium 101; 64 μg/ml
  percent change from control cGI (% ΔcGI / % −ΔcGI): 56%
M. avium 101
  effect on growth (in words): enhanced growth
MAP ATCC 19698; 1 μg/ml
  percent change from control cGI (% ΔcGI / % −ΔcGI): −17%
MAP ATCC 19698; 4 μg/ml
  percent change from control cGI (% ΔcGI / % −ΔcGI): −4%
MAP ATCC 19698; 16 μg/ml
  percent change from control cGI (% ΔcGI / % −ΔcGI): 12%
MAP ATCC 19698; 64 μg/ml
  percent change from control cGI (% ΔcGI / % −ΔcGI): 30%
MAP ATCC 19698
  effect on growth (in words): far less nicotinic acid induced enhancement
[2]; [4]
  percent change from control cGI (% ΔcGI / % −ΔcGI): 46%
[2]; [5]
  percent change from control cGI (% ΔcGI / % −ΔcGI): 71%
[2]; [6]
  percent change from control cGI (% ΔcGI / % −ΔcGI): 133%
[2]; [7]
  percent change from control cGI (% ΔcGI / % −ΔcGI): 181%
[2]; [8]
  percent change from control cGI (% ΔcGI / % −ΔcGI): 195%
[2]; [9]
  percent change from control cGI (% ΔcGI / % −ΔcGI): 198%
[2]; [10]
  percent change from control cGI (% ΔcGI / % −ΔcGI): 197%
[2]; [11]
  percent change from control cGI (% ΔcGI / % −ΔcGI): 225%
MAP strain UCF-4; 1 μg/ml
  percent change from control cGI (% ΔcGI / % −ΔcGI): 48%
MAP strain UCF-4; 4 μg/ml
  percent change from control cGI (% ΔcGI / % −ΔcGI): 63%
MAP strain UCF-4; 16 μg/ml
  percent change from control cGI (% ΔcGI / % −ΔcGI): 101%
MAP strain UCF-4; 64 μg/ml
  percent change from control cGI (% ΔcGI / % −ΔcGI): 92%
MAP strain UCF-4; 64 μg/ml, listed as nicotinic acid
  percent change from control cGI (% ΔcGI / % −ΔcGI): 92%
M. avium ATCC 25291; 1 μg/ml
  percent change from control cGI (% ΔcGI / % −ΔcGI): 98%
M. avium ATCC 25291; 4 μg/ml
  percent change from control cGI (% ΔcGI / % −ΔcGI): 170%
M. avium ATCC 25291; 16 μg/ml
  percent change from control cGI (% ΔcGI / % −ΔcGI): 167%
M. avium ATCC 25291; 64 μg/ml
  percent change from control cGI (% ΔcGI / % −ΔcGI): 175%
M. avium ATCC 25291
  effect on growth (in words): enhanced growth
MAP 303; 1 μg/ml
  percent change from control cGI (% ΔcGI / % −ΔcGI): −4%
MAP 303; 4 μg/ml
  percent change from control cGI (% ΔcGI / % −ΔcGI): 2%
MAP 303; 16 μg/ml
  percent change from control cGI (% ΔcGI / % −ΔcGI): −4%
MAP 303; 64 μg/ml
  percent change from control cGI (% ΔcGI / % −ΔcGI): 22%
MAP 303
  effect on growth (in words): far less nicotinic acid induced enhancement

## O=C(O)c1ccccc1O [salicylic acid, reference compound]
[3]; 64 μg/ml
  percent change from control cGI (% ΔcGI / % −ΔcGI): 95%
M. avium ATCC 25291; 64 μg/ml
  percent change from control cGI (% ΔcGI / % −ΔcGI): 104%
MAP 303; 64 μg/ml
  percent change from control cGI (% ΔcGI / % −ΔcGI): 66%
